Source: patent US6191150A, “Formamide compounds as therapeutic agents” (Glaxo Wellcome Inc., priority 1998, dated 2001)
Like-named read-outs stand apart in the source and are kept apart here.

How the values were obtained:
[1] = tested on: release of soluble tumor necrosis factor α from stimulated monocytes; assay: Cell-based TNFα release inhibition, LPS/PMA-stimulated MonoMac 6 cells, ELISA; settings: Homo sapiens, MONO-MAC-6, 37° C., 2 h
Experimental: Compounds (10 mM) are serially diluted 1:3 in DMSO. Compound dilutions (20 μL) are added to a sterile round bottom 96 well plate (20 μL:200 μL total volume=1:10 for final concentrations of […] for test compounds). MonoMac 6 cell suspension (130 μL, 1.5×10^6 cells/mL) is then added to each well resulting in 2×10^5 cells/well. LPS/PMA (50 μL) solution is then added to each well (final concentrations of 10 ng/mL and 30 ng/mL respectively). The plate is incubated at 37° C. for 2 h then spun at 1,500 rpm for 3 min to pellet cells. The supernatant (120 μL/well) is removed to a new round bottom 96 well plate and diluted 1:10 in PBS. Then, 20 μL of the supernatant is transferred to a Cistron […] ELISA plate and processed according to the manufacturer's instructions to quantitate levels of TNFα. Percent inhibition of TNFα release is calculated at each inhibitor concentration and the data are plotted using standard curve fitting programs. IC50 values are determined from these curves.

[2] = tested on: serum TNFα; assay: Murine LPS-stimulated serum TNF inhibition; type: in vivo, mouse (C3/hen female mice); settings: s.c., 40 mg/kg, 10 min prior to 200 μg/kg i.p. LPS; 90 min after LPS
Experimental: USA) for a final DMSO concentration of 1%. The dosing solution is sonicated briefly and 0.2 mL is injected subcutaneously 10 min prior to LPS injection, b) for per oral (p.o.) administration, test compounds are formulated in 0.2 mL of PBS and 0.1% Tween 80 and given orally via gavage 10 min prior to LPS administration.
Blood is immediately taken from the caudal vena cava and plasma prepared and frozen at -80° C. Plasma concentrations of TNF are measured by ELISA (Genzyme Co., Cambridge Mass.).

[3] = molecular target: T1, TNFα Converting Enzyme (Homo sapiens, UniProt P78536); assay: TNFα converting enzyme inhibition, MonoMac 6 membrane preparation, radiolabeled substrate SPA; type: biochemical; for TNFα Converting Enzyme Ki: 200 nM substrate
T1 construct: Membrane preparation from MonoMac 6 cells; endogenous in cells; host or cells: MonoMac 6 cells, subfractionated membrane preparation
T1 sequence (P78536 215-824): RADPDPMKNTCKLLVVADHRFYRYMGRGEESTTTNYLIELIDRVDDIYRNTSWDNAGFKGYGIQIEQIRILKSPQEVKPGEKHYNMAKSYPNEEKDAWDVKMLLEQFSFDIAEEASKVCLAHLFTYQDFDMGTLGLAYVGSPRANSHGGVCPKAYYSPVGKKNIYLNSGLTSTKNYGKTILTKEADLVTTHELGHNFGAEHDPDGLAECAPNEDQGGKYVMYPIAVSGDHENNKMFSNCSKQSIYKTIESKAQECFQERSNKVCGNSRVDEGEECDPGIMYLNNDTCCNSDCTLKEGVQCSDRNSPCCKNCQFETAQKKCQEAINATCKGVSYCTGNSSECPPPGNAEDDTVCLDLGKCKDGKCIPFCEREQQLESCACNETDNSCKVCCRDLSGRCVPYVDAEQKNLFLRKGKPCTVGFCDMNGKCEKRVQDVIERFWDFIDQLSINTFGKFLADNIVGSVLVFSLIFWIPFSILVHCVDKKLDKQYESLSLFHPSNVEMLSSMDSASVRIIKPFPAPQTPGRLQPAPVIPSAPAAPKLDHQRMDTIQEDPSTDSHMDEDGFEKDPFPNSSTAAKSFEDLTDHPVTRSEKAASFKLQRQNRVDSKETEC
Experimental: The reaction is quenched by addition of streptavidin SPA beads (Amersham RPNQ0006), with excess binding capacity relative to substrate, suspended in 250 mM EDTA, pH 8.0. Binding is complete within 15 minutes and plates are counted in a Wallac 1450 Microbeta liquid scintillation counter. Percent inhibition is calculated at each inhibitor concentration and the data are plotted using standard curve fitting programs. IC50 values are determined from these curves. Assays are run at low substrate concentration ([S]<<Km) such that the calculated IC50 values are equivalent to Ki within experimental error.

[4] = molecular target: T2, 19 kD truncated collagenase-1 (MMP-1) (Homo sapiens, UniProt P03956); assay: Matrix metalloprotease inhibition, fluorogenic substrate: collagenase-1; type: biochemical
T2 construct: 19 kD truncated collagenase-1 (MMP-1)
T2 sequence (P03956 101-269 limits assumed): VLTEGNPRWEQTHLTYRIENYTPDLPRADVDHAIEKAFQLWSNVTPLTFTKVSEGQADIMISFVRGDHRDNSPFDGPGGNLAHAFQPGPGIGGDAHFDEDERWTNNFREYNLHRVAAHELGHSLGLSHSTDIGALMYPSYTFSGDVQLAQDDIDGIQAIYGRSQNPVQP
Experimental: (§1) Assays are conducted in a total volume of 0.180 mL assay buffer (200 mM NaCl, 50 mM Tris, 5 mM CaCl2, 10 μM ZnSO4, 0.005% Brij 35, pH 7.6) in each well of a black 96-well microtiter plate. 19 kD collagenase-1, 20 kD collagenase-3, stromelysin-1,and 50 kD gelatinase B concentrations are adjusted to 500 pM, 30 pM, 5 nM, and 100 pM, respectively. A dose response is generated using an eleven-point, 3-fold serial dilution with initial starting test compound concentrations of 100, 10, or 1 μM. Inhibitor and enzyme reactions are incubated for 30 minutes at ambient temperature and then initiated with 10 μM fluorogenic substrate (above). The product formation is measured at Excitation343 /Emission450 nm after 45-180 minutes using a Fluostar SLT fluorescence analyzer. Percent inhibition is calculated at each inhibitor concentration and the data are plotted using standard curve fitting programs. IC50 values are determined from these curves. Assays are run at low substrate concentration ([S]<<Km) such that the calculated IC50 values are equivalent to Ki within experimental error.

[5] = molecular target: stromelysin-1 (Homo sapiens, UniProt P08254); assay: Matrix metalloprotease inhibition, fluorogenic substrate: stromelysin-1; type: biochemical
Sequence of stromelysin-1 (P08254 100-477): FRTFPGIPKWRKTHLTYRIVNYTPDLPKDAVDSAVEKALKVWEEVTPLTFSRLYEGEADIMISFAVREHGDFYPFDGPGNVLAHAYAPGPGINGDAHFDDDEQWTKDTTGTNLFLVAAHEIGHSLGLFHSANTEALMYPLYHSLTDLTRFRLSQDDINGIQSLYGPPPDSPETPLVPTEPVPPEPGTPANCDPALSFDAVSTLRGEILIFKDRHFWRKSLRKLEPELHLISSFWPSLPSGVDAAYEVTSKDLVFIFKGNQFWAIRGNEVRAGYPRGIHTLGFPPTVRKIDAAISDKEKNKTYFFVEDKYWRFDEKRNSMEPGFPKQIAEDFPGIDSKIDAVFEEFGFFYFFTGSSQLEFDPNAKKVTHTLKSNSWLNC
Experimental: as §1

[6] = read-out: TNFα Converting Enzyme Ki

Row | Compound | IC50 [1] [nM] | Percentage Inhibition of Serum TNFα [2] | Ki [3] [nM] | Ki [4] [nM] | Ki [5] [nM] | Ki [3, 6] [nM]
1 | NC(=N[N+](=O)[O-])NCCC[C@H](NC(=O)[C@H](CC1CCCCC1)[C@H](C1CC1)N(O)C=O)C(=O)Nc1nccs1 [Example 10, (2R,3S)-3-(Formyl-hydroxyamino)-2-(cyclohexylmethyl)-3-cyclopropylpropanoic Acid [(1S)-4-(nitroimino-amino)methylamino-1-(1,3-thiazol-2-ylcarbamoyl)-1-butyl]amide] | 250 to 500 | ++ (50%-75%) | < 50 | 50 to 250 | > 1000 | 
2 | CCC[C@@H]([C@@H](Cc1ccc(C)s1)C(=O)N[C@@H](CCCNC(N)=N[N+](=O)[O-])C(=O)Nc1nccs1)N(O)C=O [Example 9, (2R,3S)-3-(Formyl-hydroxyamino)-2-(5-methyl-2-thio-phenemethyl)hexanoic Acid [(1S)-4-((nitroimino-amino)methylamino)-1-(1,3-thiazol-2-ylcarbamoyl)-1-butyl]amide] | 50 to 250 |  |  | > 1000 | 50 to 250 | 
3 | NC(=N[N+](=O)[O-])NCCC[C@H](NC(=O)[C@H](CC1CCCCC1)[C@H](CCC(F)(F)F)N(O)C=O)C(=O)Nc1nccs1 [Example 6, (2R,3S)-3-(Formyl-hydroxyamino)-2-(cyclohexylmethyl)-6,6,6-trifluorohexanoic Acid [(1S)-4-(nitroimino-amino)methylamino-1-(1,3-thiazol-2-ylcarbamoyl)-1-butyl]amide] | 50 to 250 | ++ (50%-75%) |  | 50 to 250 | 50 to 250 | < 50
4 | CCC[C@@H]([C@@H](CC1CCC(C)CC1)C(=O)N[C@@H](CCCNC(N)=N[N+](=O)[O-])C(=O)Nc1nccs1)N(O)C=O (stereo partly drawn) [Example 7, (2R,3S)-3-(Formyl-hydroxyamino)-2-(4-methylcyclohexyl-methyl)hexanoic Acid [(1S)-4-(nitroimino-amino)methyl-amino-1-(1,3-thiazol-2-ylcarbamoyl)-1-butyl]amide] | 50 to 250 | ++ (50%-75%) |  | 50 to 250 | 50 to 250 | < 50
5 | CCC[C@@H]([C@@H](CC(C)C)C(=O)N[C@@H](CCCNC(N)=N[N+](=O)[O-])C(=O)Nc1nccs1)N(O)C=O [Example 1, (2R,3S)-3-(Formyl-hydroxyamino)-2-(2-methyl-1-propyl)hexanoic Acid [(1S)-4-(nitroimino-amino)methylamino-1-(1,3-thiazol-2-ylcarbamoyl)-1-butyl]amide] | < 50 | +++ (>75%) |  | < 50 | < 50 | 
6 | CC(C)C[C@@H](C(=O)N[C@H](C(=O)Nc1nccs1)[C@H](C)CCNC(N)=N[N+](=O)[O-])[C@H](C)N(O)C=O [Example 3, (2R,3S)-3-(Formyl-hydroxyamino)-2-(2-methyl-1-propyl)butanoic Acid [(1S,2R)-2-Methyl-4-(nitroimino-amino)methylamino-1-(1,3-thiazol-2-ylcarbamoyl)-1-butyl]amide] | < 50 |  |  | < 50 | 50 to 250 | < 50
7 | CC1CCC(C[C@@H](C(=O)N[C@@H](CCCNC(N)=N[N+](=O)[O-])C(=O)Nc2nccs2)[C@H](C(C)C)N(O)C=O)CC1 (stereo partly drawn) [Example 8, (2R,3S)-3-(Formyl-hydroxyamino)-2-(4-methylcyclohexyl-methyl)-4-methylpentanoic Acid [(1S)-4-(nitroimino-amino)methylamino-1-(1,3-thiazol-2-ylcarbamoyl)-1-butyl]amide] | < 50 | ++ (50%-75%) |  | 50 to 250 | 50 to 250 | 
8 | CC(C)C[C@@H](C(=O)N[C@@H](CCCNC(N)=N[N+](=O)[O-])C(=O)Nc1nccs1)[C@H](Cc1ccccc1)N(O)C=O [Example 5] | 250 to 500 |  |  | < 50 | < 50 | 
9 | CCC[C@@H]([C@@H](CC1CCCCC1)C(=O)N[C@@H](CCCNC(N)=N[N+](=O)[O-])C(=O)Nc1nccs1)N(O)C=O [Example 2, (2R,3S)-3-(Formyl-hydroxyamino)-2-(cyclohexylmethyl)hexanoic Acid [(1S)-4-(nitroimino-amino)methylamino-1-(1,3-thiazol-2-ylcarbamoyl)-1-butyl]amide] | < 50 | ++ (50%-75%) |  | 50 to 250 | 50 to 250 | < 50
10 | CCC[C@@H]([C@@H](CC(C)C)C(=O)N[C@H](C(=O)Nc1nccs1)[C@H](C)CCNC(N)=N[N+](=O)[O-])N(O)C=O [Example 4, (2R,3S)-3-(Formyl-hydroxyamino)-2-(2-methyl-1-propyl)hexanoic Acid [(1S,2R)-2-Methyl-4-(nitroimino-amino)methylamino-1-(1,3-thiazol-2-ylcarbamoyl)-1-butyl]amide] | < 50 |  |  | < 50 | 50 to 250 | < 50
